The record followed here is ChEMBL document CHEMBL3396967, “Discovery of anthranilamides as a novel class of inhibitors of neurotropic alphavirus replication” (Bioorg Med Chem, 2015).

pIC50: −log10 of the molar value. Active and inactive are the calls of the source. Bounds are passed on as bounds.

Data set [1] has as its target ATP-dependent translocase ABCB1 (Homo sapiens, UniProt P08183). The data set is described as follows: Inhibition of human MDR1 expressed in MDCK2 cells assessed as increase of rhodamine 123 uptake at 5 uM up to 240 mins. Particulars: mdck-ii, 4 h. On the set-up: scale not given: the % may be the effect or the level left. In kind it is ADME, cell-based.
The nature of data set [2]: Cytotoxicity against human BE(2)-C cells after 18 to 20 hrs by MTT assay. In kind it is cell-based. Background: Formazan colour is commonly taken as a measure of viable cells.
A short description of data set [3]: Kinetic solubility of the compound in WEEV replication assay medium in presence of 10% fetal bovine serum. In kind it is physicochemical. The note with it: for Kinetic_solubility: serum; for solubility kinetic: WEEV replication assay medium with 10% fetal bovine serum, read-out: Kinetic_solubility.
The subject of data set [4] is Western equine encephalitis virus. Kind of data set: microbe, parasite or virus in culture. Particulars: BE(2)-C.
Data set [5] has as its target MDR1 (ABCB1, P-glycoprotein) (Homo sapiens, UniProt P08183). The data set is described as follows: Inhibition of human MDR1 expressed in MDCK2 cells assessed as increase of rhodamine 123 uptake at 30 uM up to 240 mins relative to 5 uM tariquidar. The format is ADME, cell-based, MDCK-II. The note with it: MDCK2 cells expressing human MDR1, probe rhodamine 123, read-out: Activity.

The subject of another data set is Liver. Kind of data set: (§1) Half life in BALB/c mouse liver microsomes at 1 uM in presence of NADPH by HPLC-MS/MS method. In kind it is ADME. Particulars: microsomes, 1 µM. On the technique in general: Liver microsomes are a subcellular fraction often used to study metabolism.
For data set [6], the system named is Fort Morgan virus. The format is functional.
The test system of data set [7] is Encephalomyocarditis virus. Kind of data set: Antiviral activity against Encephalomyocarditis virus infected in HEK293 cells assessed as reduction of viral titer at 25 uM by plaque reduction assay relative to untreated control. The format is functional. (Plaques are areas of infected cells; plaque reduction assays count them against a control.)
Data set [8] has as its system Western equine encephalitis virus. The format is functional.
Data set [9] deals with Fort Morgan virus. The format is functional. The source holds these as a separate data set.
Data set [10] concerns Venezuelan equine encephalitis virus. The data set is described as follows: Antiviral activity against Venezuelan equine encephalitis virus TC-83 vaccine infected in HEK293 cells assessed as reduction of viral titer at 25 uM by plaque reduction assay relative to untreated control. The format is functional.
Data set [11] relates to California encephalitis virus. Kind of data set: Antiviral activity against California encephalitis virus infected in HEK293 cells assessed as reduction of viral titer at 25 uM by plaque reduction assay relative to untreated control. In kind it is functional.
Data set [12] concerns Fort Morgan virus. The format is functional. This is another data set of the same source.
Data set [13] deals with Fort Morgan virus. The format is functional. The source holds these as a separate data set.
Data set [14] concerns Fort Morgan virus. The data set is described as follows: Antiviral activity against Fort Morgan virus infected in HEK293 cells assessed as reduction of viral titer by plaque reduction assay relative to untreated control. The format is functional, cell-based.
The nature of data set [15]: Inhibition of host cell cap-dependent translation in Cricetinae BSR-T7 cells assessed as suppression of pSV40-LUC activity at 0.1 to 10 uM after 20 hrs. The format is functional, cell-based.
A further data set concerns BSR-T7. Kind of data set: Inhibition of host cell cap-independent translation in Cricetinae BSR-T7 cells assessed as suppression of pT7/CITE-LUC activity at 0.1 to 10 uM after 20 hrs. The format is functional, cell-based.
The test system of data set [16] is Western equine encephalitis virus. The format is functional. This is another data set of the same source.
The nature of data set [17]: as §1. The format is ADME. Particulars: BALB/c, liver microsomes.

MDR1 (ABCB1, P-glycoprotein), sequence (P08183 whole entry): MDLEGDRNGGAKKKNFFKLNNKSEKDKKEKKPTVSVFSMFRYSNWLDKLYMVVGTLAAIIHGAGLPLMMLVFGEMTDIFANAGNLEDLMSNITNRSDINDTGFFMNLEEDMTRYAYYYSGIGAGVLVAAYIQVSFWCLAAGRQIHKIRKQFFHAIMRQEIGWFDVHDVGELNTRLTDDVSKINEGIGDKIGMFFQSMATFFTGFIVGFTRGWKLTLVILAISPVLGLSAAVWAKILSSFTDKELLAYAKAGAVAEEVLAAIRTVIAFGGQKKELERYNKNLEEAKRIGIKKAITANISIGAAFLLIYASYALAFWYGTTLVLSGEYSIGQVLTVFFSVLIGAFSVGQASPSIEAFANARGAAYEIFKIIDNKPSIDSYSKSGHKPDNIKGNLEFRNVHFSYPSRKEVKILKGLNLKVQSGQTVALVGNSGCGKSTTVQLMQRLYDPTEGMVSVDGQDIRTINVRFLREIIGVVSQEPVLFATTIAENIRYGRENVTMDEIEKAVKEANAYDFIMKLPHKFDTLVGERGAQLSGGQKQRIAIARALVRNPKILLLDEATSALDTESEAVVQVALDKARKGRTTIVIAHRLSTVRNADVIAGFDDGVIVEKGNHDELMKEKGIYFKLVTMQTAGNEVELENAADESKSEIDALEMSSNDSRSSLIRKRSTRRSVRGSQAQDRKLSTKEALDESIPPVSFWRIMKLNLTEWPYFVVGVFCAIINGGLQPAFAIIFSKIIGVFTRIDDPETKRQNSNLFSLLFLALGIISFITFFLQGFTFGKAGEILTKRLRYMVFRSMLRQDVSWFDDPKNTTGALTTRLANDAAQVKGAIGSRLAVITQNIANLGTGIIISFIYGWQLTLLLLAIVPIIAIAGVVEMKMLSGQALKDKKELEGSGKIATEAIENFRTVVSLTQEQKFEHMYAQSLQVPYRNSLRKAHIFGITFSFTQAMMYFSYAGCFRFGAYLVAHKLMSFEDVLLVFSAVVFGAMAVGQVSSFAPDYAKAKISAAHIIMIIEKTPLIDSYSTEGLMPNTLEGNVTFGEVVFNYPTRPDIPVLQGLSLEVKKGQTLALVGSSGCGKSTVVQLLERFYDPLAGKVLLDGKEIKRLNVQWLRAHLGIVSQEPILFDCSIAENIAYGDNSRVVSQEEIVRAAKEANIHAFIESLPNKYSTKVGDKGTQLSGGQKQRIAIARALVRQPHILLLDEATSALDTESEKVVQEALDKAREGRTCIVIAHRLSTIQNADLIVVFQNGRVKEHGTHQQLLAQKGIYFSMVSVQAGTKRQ
ATP-dependent translocase ABCB1, sequence (P08183 whole entry): as above

As to `COc1cc2c(cc1OC)CN(CCc1ccc(NC(=O)c3cc(OC)c(OC)cc3NC(=O)c3cnc4ccccc4c3)cc1)CC2`, the Activity in data set [1] is given as 1123%.

As for `CN(c1ccc(Cl)cc1)c1ccccc1C(=O)N1CCC(C(=O)NCCc2ccncc2)CC1`, the CC50 (as a rule, the concentration at which the toxic effect on the cells reaches its halfway point) in data set [2] is greater than 100 µM. Besides, the Kinetic_solubility in data set [3] is greater than 250 µg/mL. Moreover, the pIC50 (commonly the negative decadic logarithm of the IC50, by convention in mol/L) in data set [4] is 4.81. Moreover, in [5], the inhibition at 4 h, 30 µM stood at 3.9%.

For `O=C(NCCc1ccncc1)C1CCN(C(=O)[C@H]2CCCN2C(=O)c2ccc(Cl)cc2)CC1`, the CC50 in data set [2] is greater than 100 µM. Moreover, the pIC50 in data set [4] was less than 4.00.

As for `O=C(NCCc1ccncc1)C1CCN(C(=O)c2cccc3c2[nH]c2ccc(Cl)cc23)CC1`, it took 66.1 µM to reach half-maximal cytotoxicity in [2] (CC50). In data set [4], this compound showed a pIC50 of 4.73.

Regarding `O=C(NCCc1ccncc1)C1CCN(C(=O)c2ccccc2Cc2ccc(Cl)cc2)CC1`, the t1/2 with Liver was found to be 3 min. Moreover, in [2], it took 70.7 µM to reach half-maximal cytotoxicity (CC50). The solubility kinetic in [3] was determined as 62 µg/mL. Also, in [4], the pIC50 was 5.84. In data set [5], the inhibition at 4 h, 30 µM came to 22.6%.

With `O=C(NCCc1ccncc1)C1CCN(C(=O)c2ccccc2NCc2ccc(Cl)cc2)CC1`, in the data set on Liver, the t1/2 was 15 min. Besides, the Activity worked out at 3.2 ×10⁶ PFU/ml with Fort Morgan virus [6]; 1.6 ×10⁶ PFU/ml in data set [8]; 66.6% with Fort Morgan virus [9]; 9.4 ×10⁶ PFU/ml in the data set on Fort Morgan virus [12]; 73.3% with Fort Morgan virus [13]; 11.7 ×10⁶ PFU/ml in data set [16]. In data set [2], this compound registered a CC50 of 75.2 µM. Moreover, the “fold change (FC)” value in [7], in data set [10] and in data set [11] was 10 in each case. The Kinetic_solubility in data set [3] was greater than 250 µg/mL. Besides, the results for the pIC50 (in data set [4]; in the data set with Fort Morgan virus [14]; in data set [15]) were 6.25, 5.64 and 6.00, respectively. For the same compound, the inhibition entry in the data set with Fort Morgan virus [14] is “Dose-dependent effect”. Moreover, in the data set on BSR-T7, the inhibition result was “inactive”. The inhibition at 4 h, 30 µM in data set [5] was determined as 59.6%.

`O=C(NCCc1ccncc1)C1CCN(C(=O)c2ccccc2Nc2ccccc2)CC1` showed a CC50 in [2] greater than 100 µM. The Kinetic_solubility in data set [3] was greater than 250 µg/mL. The compound further showed a pIC50 in [4] of 4.54. Besides, the inhibition at 4 h, 30 µM in data set [5] worked out at 10.9%.

Regarding `O=C(NCCc1ccncc1)C1CCN(c2cc(=O)n(-c3ccc(Cl)cc3)c3ccccc23)CC1`, in data set [2], the CC50 is greater than 100 µM.

Consider `O=C(NCCc1ccncc1)C1CCN(C(=O)c2ccccc2Oc2ccc(Cl)cc2)CC1`, for which the t1/2 in the data set with Liver is 18 min. In addition, the outcome (in the data set on Fort Morgan virus [6] (25 uM); in [8] (25 uM); in the data set on Fort Morgan virus [9] (25 uM); in the data set on Fort Morgan virus [12] (5 uM); in the data set with Fort Morgan virus [13] (5 uM); in data set [16] (5 uM)) was inactive. The midpoint of cytotoxicity in data set [2], the CC50, lay at 56 µM. In addition, in data set [3], the solubility kinetic was 62 µg/mL. Besides, the pIC50 in data set [4] is 5.21. Moreover, the inhibition at 4 h, 30 µM in data set [5] was found to be 9.3%.

The compound `O=C(NCCc1ccncc1)C1CCN(C(=O)[C@H]2CCCN2Cc2ccc(Cl)cc2)CC1` showed a CC50 in data set [2] greater than 100 µM. The same compound showed a pIC50 in [4] of 4.27.

Compound `O=C(c1ccc(Cl)cc1)c1ccccc1C(=O)N1CCC(C(=O)NCCc2ccncc2)CC1` returned a CC50 in data set [2] greater than 50 µM. Moreover, the Kinetic_solubility in [3] is greater than 250 µg/mL. This compound showed a pIC50 in data set [4] of less than 4.30. The inhibition at 4 h, 30 µM in data set [5] worked out at 1.8%.

Regarding `O=C(NCCc1ccncc1)C1CCN(C(=O)c2cc3ccccc3n2Cc2ccc(Cl)cc2)CC1`, in data set [17], the half-life (in general, the time needed for the level to fall by half in the phase considered) at 1 µM amounted to 9 min. Besides, in data set [3], the solubility kinetic was determined as 31 µg/mL. In addition, the results for the pIC50 (in [4]; in the data set on Fort Morgan virus [14]; in [15]) were 6.28, 6.00 and 7.00, respectively.

In the case of `O=C(NCCc1ccncc1)C1CCN(C(=O)c2cccc3c2[nH]c2ccccc23)CC1`, the CC50 in data set [2] is greater than 100 µM. This compound also gave a pIC50 in [4] of 4.23.

In [2], `O=C(NCCc1ccncc1)C1CCN(C(=O)c2ccccc2NCCc2ccc(Cl)cc2)CC1` registered a CC50 of 86 µM. The Kinetic_solubility in data set [3] was greater than 250 µg/mL. In addition, the pIC50 in [4] is 5.46. Further, in [5], the inhibition at 4 h, 30 µM stood at 30.7%.

As to `O=C(NCCc1ccncc1)C1CCN(C(=O)[C@@H]2CCCN2C(=O)c2ccc(Cl)cc2)CC1`, the pIC50 in data set [4] was less than 4.00.

In turn, `O=C(NCCc1ccncc1)C1CCN(C(=O)NCc2ccc(Cl)cc2)CC1` had a CC50 in [2] greater than 100 µM. The same compound showed a pIC50 in data set [4] of 4.22.

Compound `O=C(NCCc1ccncc1)C1CCN(C(=O)Cc2ccc(Cl)cc2)CC1` showed a CC50 in [2] greater than 100 µM. The pIC50 in data set [4] is less than 4.00.

In [2], `O=C(NCCc1ccncc1)C1CCN(C(=O)[C@@H]2CCCN2Cc2ccc(Cl)cc2)CC1` showed a CC50 of 91.6 µM. In data set [4], this compound showed a pIC50 of 4.87.

For `O=C(NCCc1ccncc1)C1CCN(C(=O)c2ccccc2NCc2ccccc2)CC1`, half-maximal cytotoxicity in data set [2] (CC50) was put at 92.2 µM. Besides, the Kinetic_solubility in data set [3] is greater than 250 µg/mL. This compound gave a pIC50 in data set [4] of 4.72. In addition, the inhibition at 4 h, 30 µM in data set [5] was 2.5%.

`O=C(NCCc1ccncc1)C1CCN(C(=O)CCc2ccc(Cl)cc2)CC1` registered a CC50 in [2] greater than 100 µM. In addition, in data set [4], the pIC50 is less than 4.00.

Take `O=C(NCCc1ccncc1)C1CCN(C(=O)c2cccn2Cc2ccc(Cl)cc2)CC1`: the half-life at 1 µM in data set [17] was 3 min. This compound also had a CC50 in data set [2] greater than 100 µM. Further, the solubility kinetic in data set [3] was determined as 125 µg/mL. The pIC50 in data set [4] was 6.17.

In data set [2], `O=C(NCCc1ccncc1)C1CCN(c2cc(=O)n(Cc3ccc(Cl)cc3)c3ccccc23)CC1` gave a CC50 of 34.1 µM. This compound also showed a pIC50 in data set [4] of 4.96.

As to `O=C(NCCc1ccncc1)C1CCN(C(=O)c2ccccc2Nc2ccc(Cl)cc2)CC1`, in the data set on Liver, the t1/2 worked out at 19 min. The Activity in the data set on Fort Morgan virus [6] amounted to 3.7 ×10⁶ PFU/ml; in data set [8], 3.2 ×10⁶ PFU/ml; in the data set with Fort Morgan virus [9], 58.1%; in the data set with Fort Morgan virus [13], 54.6%; in data set [16] it was 49.2 ×10⁶ PFU/ml. This compound registered a CC50 in data set [2] greater than 100 µM. In addition, the “fold change (FC)” value in data set [7], in data set [10] and in [11] was 10 throughout. For the same compound, the Kinetic_solubility in [3] was greater than 250 µg/mL. The results for the pIC50 (in [4]; in the data set with Fort Morgan virus [14]; in [15]) were 5.80, 5.28 and 5.66, respectively. The inhibition result with Fort Morgan virus [14] was “Dose-dependent effect”. Besides, in the data set on BSR-T7, the inhibition entry is “inactive”. In [5], the inhibition at 4 h, 30 µM is 47.7%.
